Data on 4 compounds can be found in patent US11767341B2, “Lincosamide antibiotics and uses thereof” (President and Fellows of Harvard College, priority 2017, dated 2023).

Values after ≈ are worked out from the molar mass of the structure shown. Like-named read-outs stand apart in the source and are kept apart here. Bounds are passed on as bounds.

Assay in all cases: MIC determination
Common to all, as to type: cell-based

Assay [1] deals with E. coli MMX TolC parent strain. The following applies: Escherichia coli.
Assay [2] has as its system S. pneumoniae UNT-039, MP-627, TP1517 (mefA). The settings on record: Streptococcus pneumoniae.
Assay [3] relates to S. aureus MP-513 clinical cErm. The settings on record: Staphylococcus aureus.
The test system of assay [4] is S. pneumoniae UNT-038, MP-626, TP 160 (mefA). The settings on record: Streptococcus pneumoniae.
In assay [5] the test system is P. aeruginosa ATCC 27853. The following applies: Pseudomonas aeruginosa, ATCC27853.
In assay [6] the test system is S. pneumoniae TP 1579 (ermB + tet(M, O)). The following applies: Streptococcus pneumoniae.
Assay [7] has as its system S. aureus Micromyx USA 300. The settings on record: Staphylococcus aureus, USA300; S. aureus Micromyx USA 300; read-out: MIC.
For assay [8], the system named is E. coli GUEST131 (NDM-1). The following applies: Escherichia coli.
In assay [9] the test system is E. faecalis MMX 847 Macrolide-Resistant. The following applies: Enterococcus faecalis.
In assay [10] the test system is S. pyogenes UNT-014, MP-625 MacRes. The following applies: Streptococcus pyogenes; S. pyogenes UNT-014, MP-625 MacRes; read-out: MIC.
Assay [11] relates to P. aeruginosa MMX 3476 Δmex. The settings on record: Pseudomonas aeruginosa.
The subject of assay [12] is P. aeruginosa MMX Mex parent strain. The settings on record: Pseudomonas aeruginosa.
Assay [13] deals with E. coli MMX 0121 ΔTolC. The settings on record: Escherichia coli.
Assay [14] deals with E. faecalis ATCC 29212. The following applies: Enterococcus faecalis, ATCC29212, read-out: MIC.
The subject of assay [15] is S. aureus BAA-1556 (USA 300). The settings on record: Staphylococcus aureus; S. aureus BAA-1556 (USA 300); read-out: MIC.
In assay [16] the test system is S. pneumoniae TP 1537 (ermB + mefA). The following applies: Streptococcus pneumoniae; S. pneumoniae TP 1537 (ermB + mefA); read-out: MIC.
For assay [17], the system named is S. aureus UNT-146, MP-620, TP 506 (ermA). The following applies: Staphylococcus aureus.
The subject of assay [18] is H. influenzae ATCC 49247. The settings on record: Haemophilus influenzae, ATCC49247; H. influenzae ATCC 49247; read-out: MIC.
Assay [19] relates to S. aureus ATCC 29213. The settings on record: Staphylococcus aureus, ATCC29213, S. aureus ATCC 29213; read-out: MIC.
The subject of assay [20] is S. aureus UNT96, NRS710, MP-618 (USA 100, Erythro >8). The following applies: Staphylococcus aureus.
For assay [21], the system named is E. faecalis UNT-047 VRE. The following applies: Enterococcus faecalis.
In assay [22] the test system is S. pneumoniae ATCC 49619. The settings on record: Streptococcus pneumoniae, ATCC49619; S. pneumoniae ATCC 49619; read-out: MIC.
The subject of assay [23] is E. coli ATCC 25922. The settings on record: Escherichia coli.
The test system of assay [24] is S. pyogenes ATCC 19615. The settings on record: Streptococcus pyogenes, ATCC19615; S. pyogenes ATCC 19615; read-out: MIC.
For assay [25], the system named is S. aureus UNT-120, MP-619, NRS22 (USA 600, GISA). The following applies: Staphylococcus aureus.
For assay [26], the system named is K. pneumoniae IHMA 658692; KPC-2. The following applies: Klebsiella pneumoniae; K. pneumoniae IHMA 658692; KPC-2; read-out: MIC.
Assay [27] concerns K. pneumoniae ATCC 10031. The following applies: Klebsiella pneumoniae, ATCC10031; K. pneumoniae ATCC 10031; read-out: MIC.
In assay [28] the test system is E. coli MP-9 ΔTolC. The settings on record: Escherichia coli.
Assay [29] deals with S. aureus MP-549 msr(a) USA 300. The following applies: Staphylococcus aureus, USA300, S. aureus MP-549 msr(a) USA 300.
For assay [30], the system named is S. aureus BAA 977 iErmA. The settings on record: Staphylococcus aureus, BAA977.
Where [31] appears, read: P. aeruginosa ATCC 27853, read-out: MIC.
[32] abbreviates: S. aureus UNT-146, MP-620, TP 506 (ermA), read-out: MIC.
Where [33] appears, read: S. aureus UNT96, NRS710, MP-618 (USA 100, Erythro >8), read-out: MIC.
Where [34] appears, read: E. faecalis UNT-047 VRE, read-out: MIC.
The mark [35] stands for this setting: ATCC25922, E. coli ATCC 25922, read-out: MIC.
[36] abbreviates: S. aureus UNT-120, MP-619, NRS22 (USA 600, GISA), read-out: MIC.

With `CCC[C@@H]1C[C@@H](C(=O)N[C@@H]([C@H]2O[C@H](SC)[C@H](O)[C@@H](O)[C@H]2O)[C@H](C)Cl)N(C)C1` [Clindamycin, clindamycin, reference compound], the MIC in assay [1] was more than 64 µg/mL; in assay [2] it was not above 0.0313 µg/mL; in assay [3], more than 64 µg/mL; in assay [4], not above 0.0313 µg/mL; in [5] it was more than 64 µg/mL; in [6], not above 0.0313 µg/mL. Further, the MIC is 0.25 µg/mL (≈ 0.588 µM) in assay [7]; more than 3 µg/mL in assay [8]; more than 64 µg/mL in assay [9]; not above 0.0313 µg/mL in assay [10]; more than 64 µg/mL in [11]; more than 64 µg/mL in assay [12]. In assay [13], this compound displayed an MIC of 4 µg/mL (≈ 9.41 µM).

Regarding `CSC1O[C@H]([C@H](NC(=O)[C@H]2NC[C@@H]3CCCCO[C@H]32)[C@H](C)Cl)C(O)[C@@H](O)[C@H]1O` (some centres unmarked) [FSA-22091], the MIC was more than 32 µg/mL in [14]; less than 0.0313 µg/mL in assay [2]; more than 32 µg/mL in assay [15]; less than 0.0313 µg/mL in [4]; 32 µg/mL in assay [16]; more than 32 µg/mL in [5] (setting [31]). Moreover, the MIC in assay [17] (setting [32]) was more than 32 µg/mL; in assay [6], less than 0.0313 µg/mL; in assay [18] it was 8 µg/mL (≈ 18.2 µM); in assay [19] it was 0.125 µg/mL (≈ 0.285 µM); in assay [8], more than 32 µg/mL; in [20] (setting [33]), more than 32 µg/mL. The MIC in [21] (setting [34]) was more than 32 µg/mL; in assay [22], less than 0.0313 µg/mL; in [23] (setting [35]) it was 32 µg/mL (≈ 72.9 µM); in assay [24], less than 0.0313 µg/mL; in [25] (setting [36]) it was more than 32 µg/mL; in [26], more than 32 µg/mL. In addition, the MIC in [10] was less than 0.0313 µg/mL; in [27], 8 µg/mL (≈ 18.2 µM).

With `CSC1O[C@H]([C@H](NC(=O)[C@H]2NC[C@@H]3C=CCO[C@@H]23)[C@H](C)Cl)C(O)[C@@H](O)[C@H]1O` (some centres unmarked) [FSA-24039], the MIC in assay [14] is 32 µg/mL (≈ 75.7 µM); in assay [2], not above 0.0313 µg/mL; in assay [15] it was more than 32 µg/mL; in assay [4] it was 0.125 µg/mL (≈ 0.296 µM); in [16], more than 32 µg/mL; in [5] (setting [31]), more than 32 µg/mL. Further, the MIC in assay [17] (setting [32]) is more than 32 µg/mL; in assay [6], 0.0625 µg/mL (≈ 0.148 µM); in assay [18] it was 32 µg/mL (≈ 75.7 µM); in [19], 1 µg/mL (≈ 2.36 µM); in [8], more than 32 µg/mL; in [20] (setting [33]), more than 32 µg/mL. Also, the MIC is more than 32 µg/mL in assay [21] (setting [34]); 0.0625 µg/mL (≈ 0.148 µM) in [22]; more than 32 µg/mL in assay [23] (setting [35]); 0.125 µg/mL (≈ 0.296 µM) in [24]; more than 32 µg/mL in assay [25] (setting [36]); more than 32 µg/mL in assay [26]. Moreover, the MIC is 0.125 µg/mL (≈ 0.296 µM) in [10] and more than 32 µg/mL in assay [27].

`CSC1O[C@H]([C@H](NC(=O)[C@H]2NC[C@@H]3CN(Cc4ccccc4)CCO[C@H]32)[C@H](C)Cl)C(O)[C@@H](O)[C@H]1O` (some centres unmarked) [FSA-502002]: the MIC in assay [14] is 8 µg/mL (≈ 15.1 µM); in assay [2], 0.125 µg/mL (≈ 0.236 µM); in assay [28], more than 64 µg/mL; in [3], more than 64 µg/mL; in assay [4] it was 0.25 µg/mL (≈ 0.472 µM); in [5], more than 64 µg/mL. In addition, the MIC in assay [17] is more than 64 µg/mL; in assay [19], 2 µg/mL (≈ 3.77 µM); in assay [20] it was more than 64 µg/mL; in assay [21] (VRE), more than 64 µg/mL; in assay [22], 0.25 µg/mL (≈ 0.472 µM); in assay [23] (ATCC25922) it was more than 64 µg/mL. For the same compound, the MIC in [24] is 0.125 µg/mL (≈ 0.236 µM); in assay [25] it was more than 64 µg/mL; in assay [10], 0.125 µg/mL (≈ 0.236 µM); in assay [29], 2 µg/mL (≈ 3.77 µM); in assay [27] it was 64 µg/mL (≈ 121 µM); in assay [30], 2 µg/mL (≈ 3.77 µM).
